Laboratory results from patent US11945813B2, “5-substituted 4-amino-1H-benzo[c][1,2,6]thiadiazine 2,2-dioxides and formulations and uses thereof” (Firmenich Incorporated, priority 2018, dated 2024).

Target: T1, T1R2/T1R3 taste receptor (Homo sapiens, UniProt Q8TE23)
T1 sequence (Q8TE23 20-839): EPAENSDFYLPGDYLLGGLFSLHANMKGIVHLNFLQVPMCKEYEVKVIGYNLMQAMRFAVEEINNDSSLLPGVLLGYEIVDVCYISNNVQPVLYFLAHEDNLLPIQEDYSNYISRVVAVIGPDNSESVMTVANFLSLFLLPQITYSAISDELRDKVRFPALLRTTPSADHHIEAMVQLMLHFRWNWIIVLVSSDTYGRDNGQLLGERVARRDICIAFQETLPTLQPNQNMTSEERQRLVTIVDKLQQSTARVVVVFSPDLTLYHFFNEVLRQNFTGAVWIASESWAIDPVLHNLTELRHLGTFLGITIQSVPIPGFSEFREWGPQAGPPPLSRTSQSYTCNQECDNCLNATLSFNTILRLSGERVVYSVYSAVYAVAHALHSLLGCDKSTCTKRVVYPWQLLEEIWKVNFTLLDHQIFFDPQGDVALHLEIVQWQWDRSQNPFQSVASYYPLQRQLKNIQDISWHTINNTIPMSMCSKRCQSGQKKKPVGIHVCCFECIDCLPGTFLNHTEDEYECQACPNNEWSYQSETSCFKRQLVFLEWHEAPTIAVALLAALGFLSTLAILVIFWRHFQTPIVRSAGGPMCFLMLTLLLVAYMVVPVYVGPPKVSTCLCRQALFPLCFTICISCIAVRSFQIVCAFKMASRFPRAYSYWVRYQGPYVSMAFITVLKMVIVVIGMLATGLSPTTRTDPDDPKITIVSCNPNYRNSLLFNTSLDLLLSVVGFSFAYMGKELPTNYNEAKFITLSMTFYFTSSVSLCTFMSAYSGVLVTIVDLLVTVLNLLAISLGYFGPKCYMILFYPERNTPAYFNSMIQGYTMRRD
T1 sequence (Q7RTX0 21-852 partner): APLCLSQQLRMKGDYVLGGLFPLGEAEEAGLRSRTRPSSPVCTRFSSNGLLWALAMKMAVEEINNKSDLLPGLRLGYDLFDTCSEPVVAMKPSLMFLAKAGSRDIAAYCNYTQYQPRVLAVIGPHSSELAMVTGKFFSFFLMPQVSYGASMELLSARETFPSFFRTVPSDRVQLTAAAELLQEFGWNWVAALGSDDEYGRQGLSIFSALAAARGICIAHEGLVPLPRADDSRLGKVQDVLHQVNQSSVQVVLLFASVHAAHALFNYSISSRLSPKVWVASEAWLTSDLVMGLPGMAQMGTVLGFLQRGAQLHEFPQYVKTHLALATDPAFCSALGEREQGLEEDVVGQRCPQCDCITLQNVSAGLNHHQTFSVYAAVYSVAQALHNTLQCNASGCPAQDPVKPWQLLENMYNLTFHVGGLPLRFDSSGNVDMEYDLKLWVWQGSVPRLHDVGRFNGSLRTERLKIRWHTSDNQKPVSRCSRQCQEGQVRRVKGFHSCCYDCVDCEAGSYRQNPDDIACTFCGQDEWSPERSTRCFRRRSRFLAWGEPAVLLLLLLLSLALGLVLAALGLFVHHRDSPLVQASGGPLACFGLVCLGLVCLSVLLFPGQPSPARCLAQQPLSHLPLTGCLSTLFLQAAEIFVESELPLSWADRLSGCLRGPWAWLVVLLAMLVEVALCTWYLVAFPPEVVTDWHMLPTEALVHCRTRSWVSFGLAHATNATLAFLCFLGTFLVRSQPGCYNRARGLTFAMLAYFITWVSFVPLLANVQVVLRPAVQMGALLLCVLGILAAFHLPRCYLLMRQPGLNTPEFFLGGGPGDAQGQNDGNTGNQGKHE
Experiment: Receptor-based assay: sweetener EC50 alone and with test compound (enhancement ratio)
Assay type: cell-based
Settings: for Fructose Enhancement EC50 Ratio: sweetener fructose; for Sucralose Enhancement EC50 Ratio: sweetener sucralose; for Sucrose Enhancement EC50 Ratio: sweetener sucrose
Procedure: Potencies (EC50 values) for the sweeteners sucrose, sucralose, and fructose were measured against the T1R2/T1R3 taste receptor. EC50 was determined using the sweetener alone and in the presence of 3 μM, 10 μM, or 50 μM of test compound. EC50 ratios were calculated by the ratio of potency with and without the test compound. An “A” value indicates an enhancement ratio of greater than 20. A “B” value indicates an enhancement ratio from 10 to 20. A “C” value indicates an enhancement ratio greater than 1 and less than 10.

CN(C)C(=O)c1ccc(N2CCC[C@H](COc3cccc4c3C(N)=NS(=O)(=O)N4)C2)nc1 [Compound 510]
Fructose Enhancement EC50 Ratio (50 μM test compound): C (A “C” value indicates an enhancement ratio greater than 1 and less than 10)
Sucralose Enhancement EC50 Ratio (10 μM test compound): B (A “B” value indicates an enhancement ratio from 10 to 20)
Sucralose Enhancement EC50 Ratio (50 μM test compound): A (An “A” value indicates an enhancement ratio of greater than 20)
Sucrose Enhancement EC50 Ratio (3 μM test compound): C (A “C” value indicates an enhancement ratio greater than 1 and less than 10)
Sucrose Enhancement EC50 Ratio (10 μM test compound): C (A “C” value indicates an enhancement ratio greater than 1 and less than 10)
Sucrose Enhancement EC50 Ratio (50 μM test compound): A (An “A” value indicates an enhancement ratio of greater than 20)

NC1=NS(=O)(=O)Nc2cccc(OC[C@H]3CCCN(c4ccc(C(=O)N5CCOCC5)cn4)C3)c21 [Compound 514]
Fructose Enhancement EC50 Ratio (10 μM test compound): C (A “C” value indicates an enhancement ratio greater than 1 and less than 10)
Fructose Enhancement EC50 Ratio (50 μM test compound): C (A “C” value indicates an enhancement ratio greater than 1 and less than 10)
Sucralose Enhancement EC50 Ratio (10 μM test compound): A (An “A” value indicates an enhancement ratio of greater than 20)
Sucralose Enhancement EC50 Ratio (50 μM test compound): B (A “B” value indicates an enhancement ratio from 10 to 20)
Sucrose Enhancement EC50 Ratio (3 μM test compound): C (A “C” value indicates an enhancement ratio greater than 1 and less than 10)
Sucrose Enhancement EC50 Ratio (10 μM test compound): C (A “C” value indicates an enhancement ratio greater than 1 and less than 10)
Sucrose Enhancement EC50 Ratio (50 μM test compound): C (A “C” value indicates an enhancement ratio greater than 1 and less than 10)

NC1=NS(=O)(=O)Nc2cccc(OC[C@H]3CCCN(c4cccc(C(=O)NC5CC5)n4)C3)c21 [Compound 400, (S)-6-(3-(((4-amino-2,2-dioxido-1H-benzo[c][1,2,6]thiadiazin-5-yl)oxy)methyl)piperidin-1-yl)-N-cyclopropylpicolinamide]
Fructose Enhancement EC50 Ratio (10 μM test compound): C (A “C” value indicates an enhancement ratio greater than 1 and less than 10)
Fructose Enhancement EC50 Ratio (50 μM test compound): C (A “C” value indicates an enhancement ratio greater than 1 and less than 10)
Sucralose Enhancement EC50 Ratio (10 μM test compound): A (An “A” value indicates an enhancement ratio of greater than 20)
Sucralose Enhancement EC50 Ratio (50 μM test compound): A (An “A” value indicates an enhancement ratio of greater than 20)
Sucrose Enhancement EC50 Ratio (3 μM test compound): C (A “C” value indicates an enhancement ratio greater than 1 and less than 10)
Sucrose Enhancement EC50 Ratio (10 μM test compound): C (A “C” value indicates an enhancement ratio greater than 1 and less than 10)
Sucrose Enhancement EC50 Ratio (50 μM test compound): B (A “B” value indicates an enhancement ratio from 10 to 20)

CN(C)CCNC(=O)c1cccc(N2CCC[C@H](COc3cccc4c3C(N)=NS(=O)(=O)N4)C2)n1 [Compound 406]
Fructose Enhancement EC50 Ratio (10 μM test compound): C (A “C” value indicates an enhancement ratio greater than 1 and less than 10)
Fructose Enhancement EC50 Ratio (50 μM test compound): C (A “C” value indicates an enhancement ratio greater than 1 and less than 10)
Sucralose Enhancement EC50 Ratio (10 μM test compound): A (An “A” value indicates an enhancement ratio of greater than 20)
Sucrose Enhancement EC50 Ratio (3 μM test compound): C (A “C” value indicates an enhancement ratio greater than 1 and less than 10)
Sucrose Enhancement EC50 Ratio (10 μM test compound): B (A “B” value indicates an enhancement ratio from 10 to 20)
Sucrose Enhancement EC50 Ratio (50 μM test compound): B (A “B” value indicates an enhancement ratio from 10 to 20)

NC1=NS(=O)(=O)Nc2cccc(OC[C@H]3CCCN(c4cc(C(=O)NC5CCCC5)ccn4)C3)c21 [Compound 608]
Fructose Enhancement EC50 Ratio (10 μM test compound): C (A “C” value indicates an enhancement ratio greater than 1 and less than 10)
Fructose Enhancement EC50 Ratio (50 μM test compound): C (A “C” value indicates an enhancement ratio greater than 1 and less than 10)
Sucralose Enhancement EC50 Ratio (10 μM test compound): A (An “A” value indicates an enhancement ratio of greater than 20)
Sucralose Enhancement EC50 Ratio (50 μM test compound): A (An “A” value indicates an enhancement ratio of greater than 20)
Sucrose Enhancement EC50 Ratio (3 μM test compound): C (A “C” value indicates an enhancement ratio greater than 1 and less than 10)
Sucrose Enhancement EC50 Ratio (10 μM test compound): C (A “C” value indicates an enhancement ratio greater than 1 and less than 10)
Sucrose Enhancement EC50 Ratio (50 μM test compound): B (A “B” value indicates an enhancement ratio from 10 to 20)

CC(C)(COc1cccc2c1C(N)=NS(=O)(=O)N2)Nc1ccnc(N2CCOCC2)n1 [Compound 205]
Fructose Enhancement EC50 Ratio (50 μM test compound): C (A “C” value indicates an enhancement ratio greater than 1 and less than 10)
Sucralose Enhancement EC50 Ratio (10 μM test compound): B (A “B” value indicates an enhancement ratio from 10 to 20)
Sucralose Enhancement EC50 Ratio (50 μM test compound): A (An “A” value indicates an enhancement ratio of greater than 20)
Sucrose Enhancement EC50 Ratio (3 μM test compound): C (A “C” value indicates an enhancement ratio greater than 1 and less than 10)
Sucrose Enhancement EC50 Ratio (10 μM test compound): C (A “C” value indicates an enhancement ratio greater than 1 and less than 10)
Sucrose Enhancement EC50 Ratio (50 μM test compound): C (A “C” value indicates an enhancement ratio greater than 1 and less than 10)

COCCNC(=O)c1ccnc(N2CCC[C@H](COc3cccc4c3C(N)=NS(=O)(=O)N4)C2)c1 [Compound 604]
Fructose Enhancement EC50 Ratio (50 μM test compound): C (A “C” value indicates an enhancement ratio greater than 1 and less than 10)
Sucralose Enhancement EC50 Ratio (10 μM test compound): A (An “A” value indicates an enhancement ratio of greater than 20)
Sucrose Enhancement EC50 Ratio (50 μM test compound): B (A “B” value indicates an enhancement ratio from 10 to 20)

NC1=NS(=O)(=O)Nc2cccc(OC[C@H]3CCCN(c4ncccn4)C3)c21 [Compound 105]
Fructose Enhancement EC50 Ratio (10 μM test compound): C (A “C” value indicates an enhancement ratio greater than 1 and less than 10)
Fructose Enhancement EC50 Ratio (50 μM test compound): C (A “C” value indicates an enhancement ratio greater than 1 and less than 10)
Sucralose Enhancement EC50 Ratio (10 μM test compound): A (An “A” value indicates an enhancement ratio of greater than 20)
Sucralose Enhancement EC50 Ratio (50 μM test compound): A (An “A” value indicates an enhancement ratio of greater than 20)
Sucrose Enhancement EC50 Ratio (3 μM test compound): C (A “C” value indicates an enhancement ratio greater than 1 and less than 10)
Sucrose Enhancement EC50 Ratio (10 μM test compound): C (A “C” value indicates an enhancement ratio greater than 1 and less than 10)
Sucrose Enhancement EC50 Ratio (50 μM test compound): C (A “C” value indicates an enhancement ratio greater than 1 and less than 10)

COCCNC(=O)c1ccc(N2CCC[C@H](COc3cccc4c3C(N)=NS(=O)(=O)N4)C2)nc1 [Compound 504]
Fructose Enhancement EC50 Ratio (50 μM test compound): C (A “C” value indicates an enhancement ratio greater than 1 and less than 10)
Sucralose Enhancement EC50 Ratio (10 μM test compound): A (An “A” value indicates an enhancement ratio of greater than 20)
Sucralose Enhancement EC50 Ratio (50 μM test compound): A (An “A” value indicates an enhancement ratio of greater than 20)
Sucrose Enhancement EC50 Ratio (3 μM test compound): C (A “C” value indicates an enhancement ratio greater than 1 and less than 10)
Sucrose Enhancement EC50 Ratio (10 μM test compound): C (A “C” value indicates an enhancement ratio greater than 1 and less than 10)
Sucrose Enhancement EC50 Ratio (50 μM test compound): C (A “C” value indicates an enhancement ratio greater than 1 and less than 10)

COCCNC(=O)c1cccc(N2CCC[C@H](COc3cccc4c3C(N)=NS(=O)(=O)N4)C2)n1 [Compound 405]
Fructose Enhancement EC50 Ratio (10 μM test compound): C (A “C” value indicates an enhancement ratio greater than 1 and less than 10)
Sucralose Enhancement EC50 Ratio (10 μM test compound): B (A “B” value indicates an enhancement ratio from 10 to 20)
Sucrose Enhancement EC50 Ratio (3 μM test compound): C (A “C” value indicates an enhancement ratio greater than 1 and less than 10)
Sucrose Enhancement EC50 Ratio (10 μM test compound): C (A “C” value indicates an enhancement ratio greater than 1 and less than 10)
